Data on 20 molecules can be found in PubChem BioAssay (NCI).

Where “and” joins values, the source holds several entries; their conditions need not be identical. Equal values may be shown once.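 Tested at 5 concentrations; 48 h exposure; 96-well plates; endpoints linearly interpolated, else capped at highest concentration. GI50 = concentration required for 50% inhibition of growth. TGI marks complete inhibition of growth.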

One test relates to MDA-MB-435. Briefly: NCI-60 cell line screen, 48 h.
`OCc1ccn2c1[C@@H](O)CC2`: the TGI is > 100 µM.

Another test has as its system MOLT-4 leukemia. Put plainly: NCI-60 cell line screen, 48 h.
Turning to `N=C(N)c1ccc2nc(-c3cc(CC(=O)N[C@@H](CC(=O)O)C(=O)O)cc(-c4cc(S(N)(=O)=O)ccc4O)c3O)[nH]c2c1`, the GI50 is > 100 µM and the TGI is > 100 µM.

For the molecule `CC1=C(C(=O)Nc2ccc(Cl)c(Cl)c2)C(c2cccc(Oc3ccccc3)c2)NC(=O)N1` (stereo not drawn), the GI50 is > 50 µM and the TGI is > 50 µM.

Regarding `COc1ccc(O)c(C(=O)c2ccc(C(=O)N[C@H]3CCCNC[C@@H]3NC(=O)c3ccncc3)cc2)c1F`, the GI50 was 1.38 µM and the TGI came to 11.6 µM.

Take `O[C@H](c1cc(C(F)(F)F)nc2c(C(F)(F)F)cccc12)[C@@H]1CCCCN1`: the GI50 was 3.51 µM and the TGI is 11.1 µM.

In the case of `CCCOc1ccc2sc(NC(=O)OC)nc2c1`, the GI50 is 2.73 µM and the TGI was > 100 µM.

On to `O=C(O)c1ccc(OCc2ccccc2)c(Cl)c1`, for which the TGI is > 100 µM.

Regarding `OCCCNc1nccc(-c2c(-c3ccc(F)cc3)nn3cc(C(F)(F)F)ccc23)n1`, the GI50 is 14.3 µM and the TGI was > 25 µM.

Regarding `O=S(=O)(Nc1ccc(F)cc1F)c1ccc(-c2cnc(C3CC3)o2)cc1`, the GI50 was 0.652 µM and the TGI is > 70.1 µM.

With `COc1cc(C(=O)N2CCN(c3ncccn3)CC2)c(N)cc1OCc1ccccc1`, the GI50 was 81.6 µM and the TGI is > 100 µM.

As for `Cc1nc2sc3c(c2c(=O)[nH]1)CCCC3`, the TGI is > 100 µM.

As for `O=C1NC(=O)/C(=C\c2ccccc2)C2=C1CCCC2`, the GI50 was 2.77 µM and the TGI is 7.73 µM.

In the case of `C#COc1cccc(Nc2c(C#N)cnc3ncc(NC(=O)CCl)cc23)c1`, the GI50 is 4.2 µM and the TGI was > 62.5 µM.

Take `CCCCCOc1ccc(/C=N/Nc2cc(C)nc3ccc(Br)cc23)cc1`: the GI50 is 1.73 µM and the TGI stood at 3.58 µM.

As for `CC(=O)Oc1ccccc1C(=O)Nc1ncc([N+](=O)[O-])s1`, the GI50 was 2.64 µM.

Turning to `CCN(Cc1ccccc1C)c1ccc(CO)c(Cl)c1`, the GI50 is 15.8 µM and the TGI is 39.2 µM.

In the case of `Cn1cc(C2=C(c3cccc(Br)c3)C(=O)NC2=O)c2ccccc21`, the GI50 is 9.91 µM and the TGI is > 25 µM.

With `COc1ccc(-c2ccc(-c3ccc(C(=N)N)s3)s2)cc1`, the GI50 was 0.315 µM and the TGI was found to be 0.849 µM.

Consider `COc1ccc(CCNC(=O)c2ccc(NC3=C(Cl)C(=O)N(Cc4ccccc4)C3=O)cc2)cc1OC`, for which the GI50 is 2.28 µM and the TGI worked out at 4.78 µM.

`O=CN1CCN(CC(O)CN2CCCCC2)CC1` (stereo not drawn): the TGI is > 100 µM.

On to `OCc1ccn2c1[C@@H](O)CC2`, for which the TGI was > 100 µM.

In another test the test system is OVCAR-3 ovarian. Put plainly: NCI-60 cell line screen, 48 h.
Take `N=C(N)c1ccc2nc(-c3cc(CC(=O)N[C@@H](CC(=O)O)C(=O)O)cc(-c4cc(S(N)(=O)=O)ccc4O)c3O)[nH]c2c1`: the GI50 is > 100 µM and the TGI is > 100 µM.

As for `CC1=C(C(=O)Nc2ccc(Cl)c(Cl)c2)C(c2cccc(Oc3ccccc3)c2)NC(=O)N1` (stereo not drawn), the GI50 was 7.75 µM and the TGI turned out to be 17 µM.

Consider `COc1ccc(O)c(C(=O)c2ccc(C(=O)N[C@H]3CCCNC[C@@H]3NC(=O)c3ccncc3)cc2)c1F`, for which the GI50 is 4.3 µM and the TGI is > 23 µM.

Regarding `O[C@H](c1cc(C(F)(F)F)nc2c(C(F)(F)F)cccc12)[C@@H]1CCCCN1`, the GI50 was 3.38 µM and the TGI was found to be 11.5 µM.

As for `CCCOc1ccc2sc(NC(=O)OC)nc2c1`, the GI50 was 2.27 µM and the TGI was 19.9 µM.

In the case of `O=C(O)c1ccc(OCc2ccccc2)c(Cl)c1`, the TGI was > 100 µM.

As to `OCCCNc1nccc(-c2c(-c3ccc(F)cc3)nn3cc(C(F)(F)F)ccc23)n1`, the GI50 was 15.1 µM and the TGI was > 25 µM.

As to `O=S(=O)(Nc1ccc(F)cc1F)c1ccc(-c2cnc(C3CC3)o2)cc1`, the GI50 was 0.493 µM and the TGI turned out to be 11.9 µM.

As to `COc1cc(C(=O)N2CCN(c3ncccn3)CC2)c(N)cc1OCc1ccccc1`, the GI50 is 85.6 µM and the TGI was > 100 µM.

Turning to `Cc1nc2sc3c(c2c(=O)[nH]1)CCCC3`, the TGI was > 100 µM.

With `O=C1NC(=O)/C(=C\c2ccccc2)C2=C1CCCC2`, the GI50 is 2.71 µM and the TGI is 8.17 µM.

Consider `C#COc1cccc(Nc2c(C#N)cnc3ncc(NC(=O)CCl)cc23)c1`, for which the GI50 was 25.3 µM and the TGI is > 62.5 µM.

Take `CCCCCOc1ccc(/C=N/Nc2cc(C)nc3ccc(Br)cc23)cc1`: the GI50 was 1.92 µM and the TGI is 3.37 µM.

Regarding `CC(=O)Oc1ccccc1C(=O)Nc1ncc([N+](=O)[O-])s1`, the GI50 was 2.76 µM; the TGI is 13.1 µM and 36.6 µM.

In the case of `CCN(Cc1ccccc1C)c1ccc(CO)c(Cl)c1`, the GI50 was 2.13 µM and the TGI was 9.79 µM.

On to `Cn1cc(C2=C(c3cccc(Br)c3)C(=O)NC2=O)c2ccccc21`, for which the GI50 was 9.51 µM and the TGI is > 25 µM.

Regarding `COc1ccc(-c2ccc(-c3ccc(C(=N)N)s3)s2)cc1`, the GI50 was 0.194 µM and the TGI was 0.352 µM.

Consider `COc1ccc(CCNC(=O)c2ccc(NC3=C(Cl)C(=O)N(Cc4ccccc4)C3=O)cc2)cc1OC`, for which the GI50 is 10.9 µM and the TGI was > 100 µM.

As for `O=CN1CCN(CC(O)CN2CCCCC2)CC1` (stereo not drawn), the TGI is > 100 µM.

On to `OCc1ccn2c1[C@@H](O)CC2`, for which the TGI is > 100 µM.

A further test relates to SR leukemia. Put plainly: NCI-60 cell line screen, 48 h.
Consider `N=C(N)c1ccc2nc(-c3cc(CC(=O)N[C@@H](CC(=O)O)C(=O)O)cc(-c4cc(S(N)(=O)=O)ccc4O)c3O)[nH]c2c1`, for which the GI50 was > 100 µM and the TGI was > 100 µM.

`CC1=C(C(=O)Nc2ccc(Cl)c(Cl)c2)C(c2cccc(Oc3ccccc3)c2)NC(=O)N1` (stereo not drawn): the GI50 was 28.1 µM and the TGI was > 50 µM.

On to `COc1ccc(O)c(C(=O)c2ccc(C(=O)N[C@H]3CCCNC[C@@H]3NC(=O)c3ccncc3)cc2)c1F`, for which the GI50 is 0.63 µM and the TGI amounted to 12.7 µM.

For the molecule `O[C@H](c1cc(C(F)(F)F)nc2c(C(F)(F)F)cccc12)[C@@H]1CCCCN1`, the GI50 is 2.32 µM and the TGI was 9.5 µM.

As to `CCCOc1ccc2sc(NC(=O)OC)nc2c1`, the GI50 is 0.36 µM and the TGI was > 100 µM.

As for `O=C(O)c1ccc(OCc2ccccc2)c(Cl)c1`, the TGI was > 100 µM.

Take `OCCCNc1nccc(-c2c(-c3ccc(F)cc3)nn3cc(C(F)(F)F)ccc23)n1`: the GI50 was > 25 µM and the TGI was > 25 µM.

Regarding `O=S(=O)(Nc1ccc(F)cc1F)c1ccc(-c2cnc(C3CC3)o2)cc1`, the GI50 is 0.406 µM and the TGI was > 100 µM.

Take `COc1cc(C(=O)N2CCN(c3ncccn3)CC2)c(N)cc1OCc1ccccc1`: the GI50 is > 100 µM and the TGI was > 100 µM.

Take `Cc1nc2sc3c(c2c(=O)[nH]1)CCCC3`: the TGI came out at 81.1 µM.

Turning to `O=C1NC(=O)/C(=C\c2ccccc2)C2=C1CCCC2`, the GI50 was 2.35 µM and the TGI came out at 5.77 µM.

For `C#COc1cccc(Nc2c(C#N)cnc3ncc(NC(=O)CCl)cc23)c1`, the GI50 was 17.6 µM and the TGI is > 62.5 µM.

Take `CCCCCOc1ccc(/C=N/Nc2cc(C)nc3ccc(Br)cc23)cc1`: the GI50 was 0.448 µM and the TGI turned out to be 2.15 µM.

As to `CC(=O)Oc1ccccc1C(=O)Nc1ncc([N+](=O)[O-])s1`, the GI50 was 2.32 µM and the TGI was determined as 7.99 µM.

In the case of `CCN(Cc1ccccc1C)c1ccc(CO)c(Cl)c1`, the GI50 was 9.29 µM and the TGI was 32.6 µM.

Turning to `Cn1cc(C2=C(c3cccc(Br)c3)C(=O)NC2=O)c2ccccc21`, the GI50 was 7.33 µM and the TGI was > 25 µM.

Take `COc1ccc(-c2ccc(-c3ccc(C(=N)N)s3)s2)cc1`: the GI50 is 0.208 µM and the TGI was found to be 0.566 µM.

As for `COc1ccc(CCNC(=O)c2ccc(NC3=C(Cl)C(=O)N(Cc4ccccc4)C3=O)cc2)cc1OC`, the GI50 was 1.44 µM and the TGI was found to be 3.15 µM.

As for `O=CN1CCN(CC(O)CN2CCCCC2)CC1` (stereo not drawn), the TGI is > 100 µM.

In the case of `OCc1ccn2c1[C@@H](O)CC2`, the TGI was > 100 µM.

The subject of the next test is UACC-257 melanoma. Briefly: NCI-60 cell line screen, 48 h.
In the case of `N=C(N)c1ccc2nc(-c3cc(CC(=O)N[C@@H](CC(=O)O)C(=O)O)cc(-c4cc(S(N)(=O)=O)ccc4O)c3O)[nH]c2c1`, the GI50 is > 100 µM and the TGI is > 100 µM.

With `CC1=C(C(=O)Nc2ccc(Cl)c(Cl)c2)C(c2cccc(Oc3ccccc3)c2)NC(=O)N1` (stereo not drawn), the GI50 is 11.9 µM and the TGI came out at 42.6 µM.

For `COc1ccc(O)c(C(=O)c2ccc(C(=O)N[C@H]3CCCNC[C@@H]3NC(=O)c3ccncc3)cc2)c1F`, the GI50 was > 25 µM and the TGI is > 25 µM.

In the case of `O[C@H](c1cc(C(F)(F)F)nc2c(C(F)(F)F)cccc12)[C@@H]1CCCCN1`, the GI50 was 3.84 µM and the TGI turned out to be 9.11 µM.

For `CCCOc1ccc2sc(NC(=O)OC)nc2c1`, the GI50 is > 100 µM and the TGI is > 100 µM.

`O=C(O)c1ccc(OCc2ccccc2)c(Cl)c1`: the TGI was > 100 µM.

With `OCCCNc1nccc(-c2c(-c3ccc(F)cc3)nn3cc(C(F)(F)F)ccc23)n1`, the GI50 was > 23.4 µM and the TGI is > 25 µM.

Regarding `O=S(=O)(Nc1ccc(F)cc1F)c1ccc(-c2cnc(C3CC3)o2)cc1`, the GI50 was 10.3 µM and the TGI came out at 51.8 µM.

With `COc1cc(C(=O)N2CCN(c3ncccn3)CC2)c(N)cc1OCc1ccccc1`, the GI50 is > 100 µM and the TGI is > 100 µM.

Consider `Cc1nc2sc3c(c2c(=O)[nH]1)CCCC3`, for which the TGI was > 100 µM.

On to `O=C1NC(=O)/C(=C\c2ccccc2)C2=C1CCCC2`, for which the GI50 is 8.11 µM and the TGI worked out at 22.5 µM.

Consider `C#COc1cccc(Nc2c(C#N)cnc3ncc(NC(=O)CCl)cc23)c1`, for which the GI50 is > 62.5 µM and the TGI was > 62.5 µM.

In the case of `CCCCCOc1ccc(/C=N/Nc2cc(C)nc3ccc(Br)cc23)cc1`, the GI50 is 1.88 µM and the TGI is 3.6 µM.

For the molecule `CC(=O)Oc1ccccc1C(=O)Nc1ncc([N+](=O)[O-])s1`, the GI50 was 2.16 µM.

Turning to `CCN(Cc1ccccc1C)c1ccc(CO)c(Cl)c1`, the GI50 is 0.278 µM and the TGI turned out to be 1.67 µM.

As for `Cn1cc(C2=C(c3cccc(Br)c3)C(=O)NC2=O)c2ccccc21`, the GI50 was > 19.8 µM and the TGI is > 25 µM.

`COc1ccc(-c2ccc(-c3ccc(C(=N)N)s3)s2)cc1`: the GI50 is 0.746 µM and the TGI amounted to 1.68 µM.

For `COc1ccc(CCNC(=O)c2ccc(NC3=C(Cl)C(=O)N(Cc4ccccc4)C3=O)cc2)cc1OC`, the GI50 is 20.3 µM and the TGI came to 48.6 µM.

Consider `O=CN1CCN(CC(O)CN2CCCCC2)CC1` (stereo not drawn), for which the TGI is > 100 µM.

Consider `OCc1ccn2c1[C@@H](O)CC2`, for which the TGI was > 100 µM.
